Assay results as given in PMC8226722, “Comparison of Solution Chemical Properties and Biological Activity of Ruthenium Complexes of Selected β-Diketone, 8-Hydroxyquinoline and Pyrithione Ligands” (Pharmaceuticals, 2021).

What was measured:
physchem = assay: physchem
Procedure: The solution speciation studies of complexes 1–4 were performed using UV-vis spectrophotometry and pH-potentiometry in the presence of 200 mM chloride ions.
(§1) Titrations were performed in a carbonate-free KOH solution (0.20 M). The exact concentration of HCl and KOH solutions was determined by pH-potentiometric titrations.
(§2) The path length (l) was usually 1 cm, and 2, 5, 20 or 50 mm cells were used occasionally. Equilibrium constants (proton dissociation, stability constants, conditional stability constants (K’7.4) for the formation of mim adducts) and the individual spectra of the species were calculated with the computer program PSEQUAD [55]. The spectrophotometric titrations were performed in aqueous solution of the complexes at 25.0 ± 0.1 °C at an ionic strength of 0.20 M (KCl). Spectrum of the solution of 200 μM complex upon addition of one or two equivalents of its own ligand or phen was also measured at pH 7.4. UV-vis spectra recorded for the complexes as a function of chloride concentrations or PTA (in case of the chlorido complexes) were used to investigate the co-ligand exchange processes at pH 7.4. […] In some cases, the measurements were performed in the presence of 1–2% (Cl^−/PTA exchange reactions) or 6–8% (v/v) (interaction of mim with complexes 2, 4) DMSO.

[1] = system: Colo 320 multidrug resistant human colonic adenocarcinoma cell line; assay: MTT cytotoxicity assay, Colo 320; assay type: cell-based; conditions: for IC50: 72 h, MTT; for S.I. MRC-5/Colo 320: ratio of the indicated IC50 values
Procedure: (§3) Human colonic adenocarcinoma cell lines Colo 205 doxorubicin-sensitive (ATCC-CCL-222) and Colo 320/MDR-LRP multidrug resistant expressing ABCB1 (MDR1)-LRP (ATCC-CCL-220.1) were purchased from LGC Promochem (Teddington, UK). […] Cell lines were incubated at 37 °C, in a 5% CO2, 95% air atmosphere. The semi-adherent human colon cancer cells were detached with Trypsin-Versene (EDTA, Sigma, Steinheim, Germany) solution for 5 min at 37 °C. MRC-5 human embryonal lung fibroblast cell lines (ATCC CCL-171) were purchased from LGC Promochem. […] The cell lines were incubated at 37 °C, in a 5% CO2, 95% air atmosphere.
(§4) In the study MRC-5 non-cancerous human embryonic lung fibroblast and human colonic adenocarcinoma cell lines (doxorubicin-sensitive Colo 205 and multidrug resistant Colo 320 colonic adenocarcinoma cells) were used to determine the effect of compounds on cell growth. The effects of increasing concentrations of compounds on cell growth were tested in 96-well flat-bottomed microtiter plates. The stock solutions of the compounds were prepared in DMSO, and in the final samples the DMSO content was always lower than 1%. The compounds were diluted in a volume of 100 μL of medium.
(§5) In case of the colonic adenocarcinoma cells, the two-fold serial dilutions of compounds were prepared in 100 μL of RPMI 1640, horizontally. The semi-adherent colonic adenocarcinoma cells were treated with Trypsin-Versene (EDTA) solution. They were adjusted to a density of 1 × 10^4 cells in 100 μL of RPMI 1640 medium, and were added to each well, with the exception of the medium control wells. The final volume of the wells containing compounds and cells was 200 μL.
(§6) The culture plates were incubated at 37 °C for 72 h; at the end of the incubation period, 20 μL of MTT (Sigma) solution (from a stock solution of 5 mg/mL) were added to each well. After incubation at 37 °C for 4 h, 100 μL of sodium dodecyl sulfate (SDS) (Sigma) solution (10% in 0.01 M HCl) were added to each well and the plates were further incubated at 37 °C overnight. Cell growth was determined by measuring the optical density (OD) at 540/630 nm with Multiscan EX ELISA reader (Thermo Labsystems, Cheshire, WA, USA). […] Curves were fitted by Prism software (GraphPad Software Inc., San Diego, CA, USA) using the sigmoidal dose-response model (comparing variable and fixed slopes). The IC50 values were obtained from at least 3 independent experiments.

[2] = system: Escherichia coli K-12 AG100; assay: MIC determination (CLSI broth microdilution); assay type: cell-based; conditions: Gram-negative, AG100, 18 h
Procedure: (§7) Wild-type Escherichia coli K-12 AG100 strain [argE3 thi-1 rpsL xyl mtl Δ(gal-uvrB) supE44] expressing the AcrAB TolC EP at its basal level and Klebsiella pneumoniae ATCC 49,619 Gram-negative strains were studied in the experiments. Staphylococcus aureus ATCC 43,300 methicillin-resistant (MRSA) strain and Enterococcus faecalis ATCC 29,212 strain were used as Gram-positive strains in the assays. MIC values of the complexes were determined in 96-well plates based on the Clinical and Laboratory Standard Institute guidelines (CLSI guidelines). The stock solutions of the compounds (dissolved in DMSO using 10 mM concentration) were diluted in 100 μL of Mueller Hinton Broth. Then 10^−4 dilution of an overnight bacterial culture in 100 μL of medium was added to each well, with the exception of the medium control wells.

[3] = system: Enterococcus faecalis ATCC 29212; assay: MIC determination (CLSI broth microdilution); assay type: cell-based; conditions: Gram-positive, ATCC 29212, 18 h
Procedure: as §7

[4] = system: Staphylococcus aureus ATCC 43300 methicillin-resistant (MRSA); assay: MIC determination (CLSI broth microdilution); assay type: cell-based; conditions: Gram-positive, MRSA ATCC 43300, 18 h
Procedure: as §7

[5] = system: Klebsiella pneumoniae ATCC 49619; assay: MIC determination (CLSI broth microdilution); assay type: cell-based; conditions: Gram-negative, ATCC 49619, 18 h
Procedure: as §7

[6] = system: MRC-5 normal human embryonal lung fibroblast cells; assay: MTT cytotoxicity assay, MRC-5; assay type: cell-based; conditions: 72 h
Procedure: as §3, §4, §5, §6

[7] = system: Colo 205 chemo-sensitive human colonic adenocarcinoma cell line; assay: MTT cytotoxicity assay, Colo 205; assay type: cell-based; conditions: for IC50: 72 h, MTT; for S.I. MRC-5/Colo 205: ratio of the indicated IC50 values
Procedure: as §3, §4, §5, §6

[8] = target: ABCB1 (P-glycoprotein) efflux pump (Homo sapiens, UniProt P08183); assay: Rhodamine 123 uptake/retention fluorescence assay (flow cytometry) in Colo 320 cells
ABCB1 (P-glycoprotein) efflux pump, sequence (P08183 whole entry): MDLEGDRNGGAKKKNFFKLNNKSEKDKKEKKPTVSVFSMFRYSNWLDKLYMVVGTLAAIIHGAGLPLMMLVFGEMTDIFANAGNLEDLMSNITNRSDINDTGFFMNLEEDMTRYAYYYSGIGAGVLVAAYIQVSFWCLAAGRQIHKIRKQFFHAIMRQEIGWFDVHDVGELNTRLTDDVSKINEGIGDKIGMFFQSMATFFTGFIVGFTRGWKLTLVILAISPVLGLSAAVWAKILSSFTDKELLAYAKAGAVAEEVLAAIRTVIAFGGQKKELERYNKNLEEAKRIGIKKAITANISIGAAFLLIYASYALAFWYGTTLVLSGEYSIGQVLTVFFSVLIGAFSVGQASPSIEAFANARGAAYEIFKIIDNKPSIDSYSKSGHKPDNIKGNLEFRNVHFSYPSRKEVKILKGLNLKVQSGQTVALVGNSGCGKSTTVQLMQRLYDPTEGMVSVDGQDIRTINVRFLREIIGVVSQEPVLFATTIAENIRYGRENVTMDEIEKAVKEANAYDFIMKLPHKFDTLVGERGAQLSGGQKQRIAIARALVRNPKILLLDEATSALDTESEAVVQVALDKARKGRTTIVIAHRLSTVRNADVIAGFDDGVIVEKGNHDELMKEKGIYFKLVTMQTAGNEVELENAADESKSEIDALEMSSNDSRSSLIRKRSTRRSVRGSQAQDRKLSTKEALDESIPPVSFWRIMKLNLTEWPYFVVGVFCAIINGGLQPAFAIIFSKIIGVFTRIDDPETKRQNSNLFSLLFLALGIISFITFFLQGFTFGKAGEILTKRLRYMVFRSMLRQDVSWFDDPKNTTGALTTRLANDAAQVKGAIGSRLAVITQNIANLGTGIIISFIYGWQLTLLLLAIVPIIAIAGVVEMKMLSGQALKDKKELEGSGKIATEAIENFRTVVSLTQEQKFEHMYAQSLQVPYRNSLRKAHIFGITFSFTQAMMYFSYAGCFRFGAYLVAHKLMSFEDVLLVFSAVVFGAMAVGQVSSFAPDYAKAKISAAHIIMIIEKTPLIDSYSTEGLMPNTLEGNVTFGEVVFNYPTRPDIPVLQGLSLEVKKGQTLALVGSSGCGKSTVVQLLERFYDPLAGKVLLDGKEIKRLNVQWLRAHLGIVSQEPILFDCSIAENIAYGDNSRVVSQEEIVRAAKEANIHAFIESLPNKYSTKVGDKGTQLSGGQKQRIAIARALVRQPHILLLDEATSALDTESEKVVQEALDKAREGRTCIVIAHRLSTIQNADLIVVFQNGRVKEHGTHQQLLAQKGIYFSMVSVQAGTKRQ
Procedure: It is important to note, that the resistance of this cell line is primarily mediated by the overexpression of the ABC-transporter P-glycoprotein, which pumps out xenobiotics from the cytosol. […] This dye is membrane-permeable and is rapidly taken up by the cells; therefore, it can be effectively used for the screening of efflux pump inhibiting compounds. […] Then the fluorescence accumulation ratios (FAR) were calculated (Figure 1) according to the equation given in the Materials and Methods section. Verapamil was used as a reference inhibitor compound.
This fluorescence-based detection system uses verapamil (a first-generation, competitive EPI) as reference inhibitor. […] The tested compounds were added at different concentrations (2 and 20 µM; from 1 and 10 mM stock solutions, respectively) and the samples were incubated for 10 min at room temperature.
The parameters evaluated from flow cytometric experiments are forward scatter count (FSC, provides information about cell size); side scatter count (SSC, proportional to cell granularity or internal complexity); mean fluorescence of the cells (FL-1) and the computed FAR and FAR quotients (Table S1).

[9] = Solution stability and speciation (UV-vis, 1H-NMR, pH-potentiometry); conditions: PBS’, pH 7.4, 2% DMSO, up to 24 h
Procedure: In order to confirm our prediction, time-dependent UV-visible (UV-vis) spectra were recorded for complexes 5–8 at pH 7.4 in aqueous solution (in modified phosphate buffered saline (PBS) buffer—PBS’) and in Eagle’s minimum essential medium (EMEM) used for the cytotoxicity studies in the presence of 2% (v/v) dimethyl sulfoxide (DMSO). […] Additionally, ^1H-NMR spectra were recorded for more water-soluble complexes 6–8.
In order to compare the stability of 1 and 3 at physiological pH, a serial dilution was made and UV-vis spectra were recorded in a wide concentration range (10 μM–3 mM) (Figure S10).
as §1, §2
^1H-NMR stability studies were carried out on a Bruker Avance III HD 500 MHz instrument. All ^1H-NMR spectra were recorded on samples containing 10% (v/v) D2O with the WATERGATE water suppression pulse scheme using DSS internal standard. Stability of complexes 6–8 was checked over time by ^1H-NMR spectroscopy at 500 μM in PBS’ or in EMEM (with 10% (v/v) DMSO-d6).

[10] = system: HeLa 229 human cervix carcinoma cells; assay: MTT cytotoxicity in HeLa 229 cells (maximum non-toxic concentration); conditions: 48 h
Procedure: (§8) HeLa 229 cells (ATCC) and Vero cells (ATCC) were cultured in minimal essential medium (MEM) (Sigma, Steinheim, Germany) with Earle salts supplemented with 10% heat-inactivated fetal bovine serum (FBS) (Gibco; ThermoFisher Scientific, Inc., Waltham, MA, USA), 2 mM L-glutamine, 1× non-essential amino acids, 8 mM HEPES, 25 μg/mL gentamycin and 1 µg/mL fungisone. The cells were incubated for 1 h at room temperature to reduce the edge effect and then overnight at 37 °C, 5% CO2 to obtain a 90% confluent cell layer.
(§9) The density of cells was 4 × 10^4 cells/well in 100 µL of MEM with Earle salts supplemented with 10% heat-inactivated FBS, 2 mM L-glutamine, 1× MEM vitamins, 1× non-essential amino acids, 0.005% Na-pyruvate, 25 µg/mL gentamycin, 1 µg/mL fungisone). The plates were incubated for 1 h room temperature and then overnight at 37 °C, 5% CO2. Next day, when the cells reached a ~90% confluency, the medium was supplemented with the serial 2-fold dilutions of the complexes in three parallel wells for each concentration. […] After 24 h incubation for Vero cells and 48 h incubation for HeLa cells, 10 µL of the MTT (Sigma, Steinheim, Germany) labelling reagent (final concentration 0.5 mg/mL) was added to each well and the plate was incubated for 4 h at 37 °C, 5% CO2. After the incubation, 100 µL of the solubilisation solution (10% SDS in 1 M HCl) was added into each well, and the plate was allowed to stand overnight in the incubator at 37 °C, 5% CO2.

Vero cells = assay: MTT cytotoxicity in Vero cells (maximum non-toxic concentration); conditions: 24 h
Procedure: The antiviral effect of complexes against HSV-2 was screened using Vero cells (originally isolated from kidney epithelial cells) to host the growing viruses.
as §8, §9

Row | SMILES | IC50 [1] [µM] | MIC E. coli [2] [µM] | MIC E. faecalis [3] [µM] | MIC S. aureus [4] [µM] | MIC K. pneumoniae [5] [µM] | IC50 [6] [µM] | IC50 [7] [µM] | S.I. MRC-5/Colo 320 [1] | S.I. MRC-5/Colo 205 [7] | other results
1 | On1ccc2ccccc2c1=S [HHiQT, 2-hydroxyisoquinoline-1(2H)-thione] | – | – | – | – | – | – | – | – | – | pKa (physchem): 4.63 ± 0.08
2 | Cc1ccc(C(C)C)cc1.[Cl][Ru]([Cl])[PH]12CN3CN(CN(C3)C1)C2 [RAPTA-C, [Ru(η^6-p-cymene) (PTA)Cl2], reference compound] | > 100 | >100 | >100 | >100 | >100 | > 100 | > 100 | – | – | –
3 | N.N.[Cl][Pt][Cl] [cisplatin, reference compound] | 5.58 ± 0.7 | >100 | >100 | >100 | >100 | 0.88 ± 0.09 | 29.8 ± 1.2 | 0.16 | 0.03 | –
4 | Cc1ccc(C(C)C)cc1.[Cl-].[O-]c1c(I)cc(Cl)c2cccnc12.[Ru+2] [complex 5] | 13.7 ± 0.85 | >100 | 12.5 | 25 | >100 | 2.95 ± 0.71 | 21 ± 2.4 | 0.21 | 0.14 | FAR fluorescence accumulation ratio ([8]; Colo 320, 2 μM): 6.19; FAR quotient (FAR related to that of 20 μM verapamil) ([8]; Colo 320, 2 μM): 128.7%; FSC forward scatter count ([8]; Colo 320, 2 μM): 1917; SSC side scatter count ([8]; Colo 320, 2 μM): 840; FAR fluorescence accumulation ratio ([8]; Colo 320, 20 μM): 3.66; FAR quotient (FAR related to that of 20 μM verapamil) ([8]; Colo 320, 20 μM): 76.0%; FSC forward scatter count ([8]; Colo 320, 20 μM): 1950; SSC side scatter count ([8]; Colo 320, 20 μM): 877; FL-1 mean fluorescence of the cells ([8]; Colo 320, rhodamine 123, 2 μM): 32.7; FL-1 mean fluorescence of the cells ([8]; Colo 320, rhodamine 123, 20 μM): 19.3; FAR value ([8]; Colo 320, tested at 2 μM and 20 μM): above 2; stability in PBS’ at pH 7.4, time-dependent UV-vis spectra [9]: No characteristic UV-vis spectral changes within 24 h; maximum non-toxic concentration, HeLa 229 [10]: 25 µM; concentrations at which maximum cytotoxicity was observed, Vero (Vero cells): 12.5 to 100 µM; maximum non-toxic concentration, Vero (Vero cells): 6.25 µM
